# Test results: patent US20130157954A1, “METHODS FOR TREATMENT OR PROPHYLAXIS OF KIDNEY OR LIVER DYSFUNCTION” (NPS PHARMACEUTICALS, INC., priority 2010, published 2013)
# Test: Example 1: kidney biomarkers (urea nitrogen, creatinine, GFR) in short bowel syndrome patients, every four weeks for 24 weeks; also sorted by >5% change from baseline
# Assay type: in vivo, Human
# Set-up: CREATININE (RATE BLANKED) Change from Baseline Median / GFR Median / GFR Change from Baseline Median / UREA NITROGEN Median / UREA NITROGEN Change from Baseline Median: unit not given here
# Details: for CREATININE (RATE BLANKED) change from baseline <−5%, number of patients / CREATININE (RATE BLANKED) change from baseline <−5%, percent of patients / CREATININE (RATE BLANKED) change from baseline >5%, number of patients / CREATININE (RATE BLANKED) change from baseline >5%, percent of patients / CREATININE (RATE BLANKED) change from baseline −5% <= and <=5%, number of patients / CREATININE (RATE BLANKED) change from baseline −5% <= and <=5%, percent of patients / GFR change from baseline <−5%, number of patients / GFR change from baseline <−5%, percent of patients / GFR change from baseline >5%, number of patients / GFR change from baseline >5%, percent of patients / GFR change from baseline −5% <= and <=5%, number of patients / GFR change from baseline −5% <= and <=5%, percent of patients / UREA NITROGEN change from baseline <−5%, number of patients / UREA NITROGEN change from baseline <−5%, percent of patients / UREA NITROGEN change from baseline >5%, number of patients / UREA NITROGEN change from baseline >5%, percent of patients / UREA NITROGEN change from baseline −5% <= and <=5%, number of patients / UREA NITROGEN change from baseline −5% <= and <=5%, percent of patients: 0.1 mg/kg/day
# Method: Human patients with short bowel syndrome were divided into three groups: a control group (16 total individuals) to receive placebo, an experimental group (35 total individuals) to receive teduglutide at 0.05 mg/kg/day throughout the study, and an experimental group (32 total individuals) to receive teduglutide at 0.1 mg/kg/day throughout the study. Patients were treated by subcutaneous injection of placebo or the appropriate dose of teduglutide. As individuals with short bowel syndrome are likely to experience associated liver and kidney disease, known biomarkers of liver and kidney function were monitored every four weeks, for 24 weeks. The liver biomarkers tested included total bilirubin, ALT and AST and ALP. The kidney biomarkers tested included urea nitrogen, creatinine and GFR. Before administration of placebo or teduglutide, diagnostic biomarker levels were tested to establish a baseline for each individual.
# To visualize the effect of GLP-2 on the levels of the diagnostic biomarkers, the average change from baseline was calculated for the placebo and teduglutide treated groups for each visit after a baseline was established. The average change from baseline of each group is depicted in FIGS. 1-7. The numerical figures for each diagnostic biomarker at each time point are depicted in Table 1.
# The raw data for this sorting is reproduced in Table 2 below.
smiles,measurement,setting,value
CC[C@H](C)[C@H](NC(=O)[C@H](Cc1ccccc1)NC(=O)[C@H](CC(=O)O)NC(=O)[C@H](CCCNC(=N)N)NC(=O)[C@H](C)NC(=O)[C@H](C)NC(=O)[C@H](CC(C)C)NC(=O)[C@H](CC(N)=O)NC(=O)[C@H](CC(=O)O)NC(=O)[C@H](CC(C)C)NC(=O)[C@@H](NC(=O)[C@@H](NC(=O)[C@H](CC(N)=O)NC(=O)[C@H](CCSC)NC(=O)[C@H](CCC(=O)O)NC(=O)[C@H](CC(=O)O)NC(=O)[C@H](CO)NC(=O)[C@H](Cc1ccccc1)NC(=O)[C@H](CO)NC(=O)CNC(=O)[C@H](CC(=O)O)NC(=O)CNC(=O)[C@@H](N)Cc1c[nH]cn1)[C@@H](C)O)[C@@H](C)CC)C(=O)N[C@@H](CC(N)=O)C(=O)N[C@@H](Cc1c[nH]c2ccccc12)C(=O)N[C@@H](CC(C)C)C(=O)N[C@H](C(=O)N[C@@H](CCC(N)=O)C(=O)N[C@H](C(=O)N[C@@H](CCCCN)C(=O)N[C@H](C(=O)N[C@H](C(=O)N[C@@H](CC(=O)O)C(=O)O)[C@@H](C)O)[C@@H](C)CC)[C@@H](C)O)[C@@H](C)CC [teduglutide],CREATININE (RATE BLANKED) Change from Baseline Median,"0.10 mg/kg/day, DW4",−0.5
same,CREATININE (RATE BLANKED) Median,"0.10 mg/kg/day, DW4",83 µmol/L
same,GFR Change from Baseline Median,"0.10 mg/kg/day, DW4",3.1
same,UREA NITROGEN Change from Baseline Median,"0.10 mg/kg/day, DW4",0.2
same,UREA NITROGEN Median,"0.10 mg/kg/day, DW4",6.3
same,CREATININE (RATE BLANKED) Change from Baseline Median,"0.10 mg/kg/day, DW8",0.0
same,CREATININE (RATE BLANKED) Median,"0.10 mg/kg/day, DW8",86 µmol/L
same,GFR Change from Baseline Median,"0.10 mg/kg/day, DW8",0.2
same,UREA NITROGEN Change from Baseline Median,"0.10 mg/kg/day, DW8",0.1
same,UREA NITROGEN Median,"0.10 mg/kg/day, DW8",6.4
same,CREATININE (RATE BLANKED) Change from Baseline Median,"0.10 mg/kg/day, DW12",6.5
same,GFR Change from Baseline Median,"0.10 mg/kg/day, DW12",−0.5
same,UREA NITROGEN Change from Baseline Median,"0.10 mg/kg/day, DW12",0.0
same,UREA NITROGEN Median,"0.10 mg/kg/day, DW12",5.9
same,CREATININE (RATE BLANKED) Change from Baseline Median,"0.10 mg/kg/day, DW16",0.0
same,GFR Change from Baseline Median,"0.10 mg/kg/day, DW16",1.1
same,UREA NITROGEN Change from Baseline Median,"0.10 mg/kg/day, DW16",0.0
same,UREA NITROGEN Median,"0.10 mg/kg/day, DW16",6.1
same,CREATININE (RATE BLANKED) Change from Baseline Median,"0.10 mg/kg/day, DW20",0.0
same,CREATININE (RATE BLANKED) Median,"0.10 mg/kg/day, DW20",88 µmol/L
same,GFR Change from Baseline Median,"0.10 mg/kg/day, DW20",1.5
same,UREA NITROGEN Change from Baseline Mean (SD),"0.10 mg/kg/day, DW20",−0.0 (1.60)
same,UREA NITROGEN Change from Baseline Median,"0.10 mg/kg/day, DW20",−0.1
same,UREA NITROGEN Median,"0.10 mg/kg/day, DW20",6.0
same,CREATININE (RATE BLANKED) Change from Baseline Median,"0.10 mg/kg/day, DW 24",0.0
same,CREATININE (RATE BLANKED) Median,"0.10 mg/kg/day, DW 24",81 µmol/L
same,GFR Change from Baseline Median,"0.10 mg/kg/day, DW 24",2.3
same,UREA NITROGEN Change from Baseline Median,"0.10 mg/kg/day, DW 24",0.3
same,UREA NITROGEN Median,"0.10 mg/kg/day, DW 24",5.9
same,"CREATININE (RATE BLANKED) change from baseline <−5%, number of patients",week 4,12
same,"CREATININE (RATE BLANKED) change from baseline <−5%, percent of patients",week 4,(37.5%)
same,"CREATININE (RATE BLANKED) change from baseline >5%, number of patients",week 4,7
same,"CREATININE (RATE BLANKED) change from baseline >5%, percent of patients",week 4,(21.9%)
same,"CREATININE (RATE BLANKED) change from baseline −5% <= and <=5%, number of patients",week 4,13
same,"CREATININE (RATE BLANKED) change from baseline −5% <= and <=5%, percent of patients",week 4,(40.6%)
same,"GFR change from baseline <−5%, number of patients",week 4,7
same,"GFR change from baseline <−5%, percent of patients",week 4,(21.9%)
same,"GFR change from baseline >5%, number of patients",week 4,14
same,"GFR change from baseline >5%, percent of patients",week 4,(43.8%)
same,"GFR change from baseline −5% <= and <=5%, number of patients",week 4,11
same,"GFR change from baseline −5% <= and <=5%, percent of patients",week 4,(34.4%)
same,"UREA NITROGEN change from baseline <−5%, number of patients",week 4,10
same,"UREA NITROGEN change from baseline <−5%, percent of patients",week 4,(31.3%)
same,"UREA NITROGEN change from baseline >5%, number of patients",week 4,15
same,"UREA NITROGEN change from baseline >5%, percent of patients",week 4,(46.9%)
same,"UREA NITROGEN change from baseline −5% <= and <=5%, number of patients",week 4,7
same,"UREA NITROGEN change from baseline −5% <= and <=5%, percent of patients",week 4,(21.9%)
same,"CREATININE (RATE BLANKED) change from baseline <−5%, number of patients",week 8,8
same,"CREATININE (RATE BLANKED) change from baseline <−5%, percent of patients",week 8,(25.0%)
same,"CREATININE (RATE BLANKED) change from baseline >5%, number of patients",week 8,13
same,"CREATININE (RATE BLANKED) change from baseline >5%, percent of patients",week 8,(40.6%)
same,"CREATININE (RATE BLANKED) change from baseline −5% <= and <=5%, number of patients",week 8,10
same,"CREATININE (RATE BLANKED) change from baseline −5% <= and <=5%, percent of patients",week 8,(31.3%)
same,"GFR change from baseline <−5%, number of patients",week 8,9
same,"GFR change from baseline <−5%, percent of patients",week 8,(28.1%)
same,"GFR change from baseline >5%, number of patients",week 8,9
same,"GFR change from baseline >5%, percent of patients",week 8,(28.1%)
same,"GFR change from baseline −5% <= and <=5%, number of patients",week 8,13
same,"GFR change from baseline −5% <= and <=5%, percent of patients",week 8,(40.6%)
same,"UREA NITROGEN change from baseline <−5%, number of patients",week 8,9
same,"UREA NITROGEN change from baseline <−5%, percent of patients",week 8,(28.1%)
same,"UREA NITROGEN change from baseline >5%, number of patients",week 8,15
same,"UREA NITROGEN change from baseline >5%, percent of patients",week 8,(46.9%)
same,"UREA NITROGEN change from baseline −5% <= and <=5%, number of patients",week 8,7
same,"UREA NITROGEN change from baseline −5% <= and <=5%, percent of patients",week 8,(21.9%)
same,"CREATININE (RATE BLANKED) change from baseline <−5%, number of patients",week 12,9
same,"CREATININE (RATE BLANKED) change from baseline <−5%, percent of patients",week 12,(28.1%)
same,"CREATININE (RATE BLANKED) change from baseline >5%, number of patients",week 12,17
same,"CREATININE (RATE BLANKED) change from baseline >5%, percent of patients",week 12,(53.1%)
